Reference: patent publication US20090060984A1, “ANIONIC SURFACTANTS LETHAL TO GRAM-POSITIVE BACTERIA” (priority 2007, published 2009)
Values joined by “and” are separate entries in the source; they are usually repeats but may differ in a detail not shown here. Identical values can stand only once. Like-named read-outs stand apart in the source and are kept apart here.

Tests used:
E. coli = format: cell-based, Escherichia coli; conditions: 24 h contact time
Protocol: Escherichia coli ATCC 11229 (Culti-loops, Remel Europe, Dartford, Kent, UK) and Pseudomonas aeruginosa ATCC 15442 (Cuti-loops, Remel Europe, Dartford, Kent, UK) were selected as model Gram-negative organisms for the challenge testing of the antimicrobial coatings. Each bacterial strain was streaked for isolated colonies on Tryptic Soy Agar (TSA) plates (Difco, Becton Dickinson, Sparks, Md., U.S.A.) and incubated at 37° C. for 12 to 18 hours. Broth cultures were prepared by first picking 1-2 isolated colonies from TSA plates and inoculating 5 mL Tryptic Soy Broth (TSB; Difco, Becton Dickinson, Sparks, Md., U.S.A.) in a 16 mm test tube. This culture was grown in a shaking water bath at 150 RPM for 8 hours at 37° C. After the eight hours, 125 μL of this culture was added to 50 mL of TSB in a side-arm Klett flask and grown for approximately 8 hours in shaking water bath (150 RPM) at 37° C. The bacterial broths were grown to an A590 of 1.2-1.5, which correlated to approximately 10^9 CFU (colony forming units)/mL. 25 mL of this broth were transferred to a sterile 30 mL Oakridge tube and centrifuged at 12,000×g for 10 minutes at 4° C. (Sorval SS34 rotor) to pelletize the bacteria. The bacterial pellet was washed once and resuspended in 25 mL of phosphate buffer solution (PBS; BBL, FTA Hemaglutination Buffer, Becton Dickinson, Sparks, Md., U.S.A.). The suspension was diluted with PBS to achieve the target range of 10^5-10^6 CFU/mL and used to inoculate the slides containing antibacterial coatings.
Xylene/methanol (5:1 by weight) is used to dissolve the silver surfactants to facilitate homogeneously mixing with the alkyd resin composition.
A minus sign (−) denotes no growth, a plus sign (+) denotes confluent growth, and a capital P (P) denotes […].
Xylene/methanol (5:1 by weight) is used to dissolve the silver surfactants to facilitate homogeneously mixing with the acrylic resin composition.
The same laboratory experimental solvent based acrylic paint described in Example 34 is used to challenge E. coli by adding various levels of the invention silver anionic surfactants as described in Example 34.
A commercially available 2K epoxy resin paint is obtained from a local paint store (Sherwin Williams High Solids Epoxy Tile Clad HS; Part A B62WC11; Part B B60VZ75, The Sherwin Williams Company) and the same silver anionic surfactants described in Example 35 are used to prepare test coatings on microscope slides containing various levels of silver ion. These surfactants are dissolved in xylene/methanol (5:1 by weight) to facilitate their quantitative addition to the coating mixture.

Enterococcus fecalis = assay: Growth on surfactant/TSA agar plates; format: cell-based; note: test concentration or dose not given here
Streptococcus viridans = assay: Growth on surfactant/TSA agar plates; format: cell-based; conditions: Streptococcus viridans strain EM8
Micrococcus luteus = assay: Growth on surfactant/TSA agar plates; format: cell-based; conditions: Micrococcus luteus strain EM17
Streptococcus agalactiae = assay: Growth on surfactant/TSA agar plates; format: cell-based; conditions: Streptococcus agalactiae strain EM13
[1] = test system: Staphylococcus epidermidis; assay: Growth on surfactant/TSA agar plates; format: cell-based; conditions: Staphylococcus epidermidis strain EM3/ATCC12228
Staphylococcus aureus = assay: Growth on surfactant/TSA agar plates; format: cell-based; note: test concentration or dose not given here
Streptococcus bovis = assay: Growth on surfactant/TSA agar plates; format: cell-based; conditions: Streptococcus bovis strain EM12
Streptococcus pyogenes = assay: Growth on surfactant/TSA agar plates; format: cell-based; conditions: Streptococcus pyogenes strain EM14; note: test concentration or dose not given here
Bacillus subtilis = assay: Growth on surfactant/TSA agar plates; format: cell-based; note: test concentration or dose not given here
[2] = laboratory solvent based acrylic paint
[3] = Enterococcus fecalis strain EM19 (first listing)
[4] = Enterococcus fecalis strain EM19 (second listing)
[5] = Staphylococcus aureus strain ATCC6538
[6] = Staphylococcus aureus strain EM24/ATCC25923
[7] = Bacillus subtilis strain ATCC33

CCCCCCCCCCCCOS(=O)(=O)[O-].[Ag+] [AgDS, Silver dodecylsufate]
E. coli growth on coating (E. coli; alkyd resin paint, 0.0012 weight % Ag in coating): +
E. coli growth on coating (E. coli; alkyd resin paint, 0.003 weight % Ag in coating): +
E. coli growth on coating (E. coli; alkyd resin paint, 0.006 weight % Ag in coating): +
E. coli growth on coating (E. coli; alkyd resin paint, 0.012 weight % Ag in coating): +
E. coli growth on coating (E. coli; alkyd resin paint, 0.03 weight % Ag in coating): −
E. coli growth on coating (E. coli; alkyd resin paint, 0.06 weight % Ag in coating): −
E. coli growth on coating (E. coli; alkyd resin paint, 0.12 weight % Ag in coating): −
E. coli growth on coating (E. coli; commercial 2K epoxy paint, 0.0012 weight % Ag in coating): +
E. coli growth on coating (E. coli; commercial 2K epoxy paint, 0.003 weight % Ag in coating): +
E. coli growth on coating (E. coli; commercial 2K epoxy paint, 0.006 weight % Ag in coating): +
E. coli growth on coating (E. coli; commercial 2K epoxy paint, 0.03 weight % Ag in coating): −
E. coli growth on coating (E. coli; commercial 2K epoxy paint, 0.06 weight % Ag in coating): −
E. coli growth on coating (E. coli; commercial 2K epoxy paint, 0.12 weight % Ag in coating): −
Silver level giving complete inhibition of growth (E. coli; commercial 2K epoxy paint): 0.03 % w/w
Silver level partially effective (E. coli; commercial 2K epoxy paint): 0.012 % w/w
E. coli growth on coating (E. coli; commercial solvent borne acrylate paint, 0.0012 weight % Ag in coating): +
E. coli growth on coating (E. coli; commercial solvent borne acrylate paint, 0.003 weight % Ag in coating): +
E. coli growth on coating (E. coli; commercial solvent borne acrylate paint, 0.006 weight % Ag in coating): +
E. coli growth on coating (E. coli; commercial solvent borne acrylate paint, 0.012 weight % Ag in coating): +
E. coli growth on coating (E. coli; commercial solvent borne acrylate paint, 0.03 weight % Ag in coating): −
E. coli growth on coating (E. coli; commercial solvent borne acrylate paint, 0.06 weight % Ag in coating): −
E. coli growth on coating (E. coli; commercial solvent borne acrylate paint, 0.12 weight % Ag in coating): −
Silver level effective at preventing any growth (E. coli; commercial solvent borne acrylic paint): completely effective at this lower level
Silver level preventing any growth (E. coli; [2]): 0.03 % w/w
Silver level with partial inhibition (E. coli; [2]): 0.012%
E. coli growth on coating (E. coli; laboratory solvent borne acrylate paint, 0.0012 weight % Ag in coating): +
E. coli growth on coating (E. coli; laboratory solvent borne acrylate paint, 0.003 weight % Ag in coating): +
E. coli growth on coating (E. coli; laboratory solvent borne acrylate paint, 0.006 weight % Ag in coating): +
E. coli growth on coating (E. coli; laboratory solvent borne acrylate paint, 0.03 weight % Ag in coating): −
E. coli growth on coating (E. coli; laboratory solvent borne acrylate paint, 0.06 weight % Ag in coating): −
E. coli growth on coating (E. coli; laboratory solvent borne acrylate paint, 0.12 weight % Ag in coating): −

CCCCC(CC)COC(=O)CC(C(=O)OCC(CC)CCCC)S(=O)(=O)[O-].[Na+] (stereo not shown) [Compound S1]
No Growth(−)/Full Growth(+), replicate columns (Enterococcus fecalis; [3]): −
No Growth(−)/Full Growth(+), replicate columns (Enterococcus fecalis; [4]): −
No Growth(−)/Full Growth(+), replicate columns (Streptococcus viridans): −
No Growth(−)/Full Growth(+), replicate columns (Micrococcus luteus): −
No Growth(−)/Full Growth(+), replicate columns (Streptococcus agalactiae): −
No Growth(−)/Full Growth(+), replicate columns [1]: −
No Growth(−)/Full Growth(+), replicate columns (Staphylococcus aureus; [5]): −
No Growth(−)/Full Growth(+), replicate columns (Staphylococcus aureus; [6]): −
No Growth(−)/Full Growth(+), replicate columns (Streptococcus bovis): −
No Growth(−)/Full Growth(+), replicate columns (Streptococcus pyogenes): −
No Growth(−)/Full Growth(+), replicate columns (Bacillus subtilis; [7]): −
No Growth(−)/Full Growth(+), replicate columns (Bacillus subtilis; Bacillus subtilis strain EM27): −

CCCCCCCCCCCCCCCCCCNC(=O)CC(C(=O)[O-])S(=O)(=O)[O-].[Na+].[Na+] (stereo not shown) [Compound S3]
No Growth(−)/Full Growth(+), replicate columns (Enterococcus fecalis; [3]): −
No Growth(−)/Full Growth(+), replicate columns (Enterococcus fecalis; [4]): +
No Growth(−)/Full Growth(+), replicate columns (Streptococcus viridans): +
No Growth(−)/Full Growth(+), replicate columns (Micrococcus luteus): −
No Growth(−)/Full Growth(+), replicate columns (Streptococcus agalactiae): −
No Growth(−)/Full Growth(+), replicate columns [1]: −
No Growth(−)/Full Growth(+), replicate columns (Staphylococcus aureus; [5]): −
No Growth(−)/Full Growth(+), replicate columns (Staphylococcus aureus; [6]): −
No Growth(−)/Full Growth(+), replicate columns (Streptococcus bovis): −
No Growth(−)/Full Growth(+), replicate columns (Streptococcus pyogenes): −
No Growth(−)/Full Growth(+), replicate columns (Bacillus subtilis; [7]): −
No Growth(−)/Full Growth(+), replicate columns (Bacillus subtilis; Bacillus subtilis strain EM27): −

CCCCC(CC)COP(=O)([O-])OCCC(CC)CCC.[Na+] (stereo not shown) [Compound S2]
No Growth(−)/Full Growth(+), replicate columns (Enterococcus fecalis; [3]): −
No Growth(−)/Full Growth(+), replicate columns (Enterococcus fecalis; [4]): −
No Growth(−)/Full Growth(+), replicate columns (Streptococcus viridans): −
No Growth(−)/Full Growth(+), replicate columns (Micrococcus luteus): −
No Growth(−)/Full Growth(+), replicate columns (Streptococcus agalactiae): −
No Growth(−)/Full Growth(+), replicate columns [1]: −
No Growth(−)/Full Growth(+), replicate columns (Staphylococcus aureus; [5]): −
No Growth(−)/Full Growth(+), replicate columns (Staphylococcus aureus; [6]): −
No Growth(−)/Full Growth(+), replicate columns (Streptococcus bovis): −
No Growth(−)/Full Growth(+), replicate columns (Streptococcus pyogenes): −
No Growth(−)/Full Growth(+), replicate columns (Bacillus subtilis; [7]): −
No Growth(−)/Full Growth(+), replicate columns (Bacillus subtilis; Bacillus subtilis strain EM27): −

CC(C)CC(C)OC(=O)CC(C(=O)OC(C)CC(C)C)S(=O)(=O)[O-].[Na+] (stereo not shown) [Compound S4]
No Growth(−)/Full Growth(+), replicate columns (Enterococcus fecalis; [3]): +
No Growth(−)/Full Growth(+), replicate columns (Enterococcus fecalis; [4]): +
No Growth(−)/Full Growth(+), replicate columns (Streptococcus viridans): +
No Growth(−)/Full Growth(+), replicate columns (Micrococcus luteus): − (2×) and +
No Growth(−)/Full Growth(+), replicate columns (Streptococcus agalactiae): − and +
No Growth(−)/Full Growth(+), replicate columns [1]: +
No Growth(−)/Full Growth(+), replicate columns (Staphylococcus aureus; [5]): +
No Growth(−)/Full Growth(+), replicate columns (Staphylococcus aureus; [6]): +
No Growth(−)/Full Growth(+), replicate columns (Streptococcus bovis): −
No Growth(−)/Full Growth(+), replicate columns (Streptococcus pyogenes): −
No Growth(−)/Full Growth(+), replicate columns (Bacillus subtilis; [7]): − and +
No Growth(−)/Full Growth(+), replicate columns (Bacillus subtilis; Bacillus subtilis strain EM27): +

O=C(CC(C(=O)OC1CCCCC1)S(=O)(=O)[O-])OC1CCCCC1.[Na+] (stereo not shown) [Compound S5]
No Growth(−)/Full Growth(+), replicate columns (Enterococcus fecalis; [3]): +
No Growth(−)/Full Growth(+), replicate columns (Enterococcus fecalis; [4]): +
No Growth(−)/Full Growth(+), replicate columns (Streptococcus viridans): +
No Growth(−)/Full Growth(+), replicate columns (Micrococcus luteus): + and − (2×)
No Growth(−)/Full Growth(+), replicate columns (Streptococcus agalactiae): − (2×) and +
No Growth(−)/Full Growth(+), replicate columns [1]: +
No Growth(−)/Full Growth(+), replicate columns (Staphylococcus aureus; [5]): +
No Growth(−)/Full Growth(+), replicate columns (Staphylococcus aureus; [6]): +
No Growth(−)/Full Growth(+), replicate columns (Streptococcus bovis): −
No Growth(−)/Full Growth(+), replicate columns (Streptococcus pyogenes): −
No Growth(−)/Full Growth(+), replicate columns (Bacillus subtilis; [7]): −
No Growth(−)/Full Growth(+), replicate columns (Bacillus subtilis; Bacillus subtilis strain EM27): − and +

CCCCCCCCCCCCCOC(=O)CC(C(=O)OCCCCCCCCCCCCC)S(=O)(=O)[O-].[Na+] (stereo not shown) [Compound S6]
No Growth(−)/Full Growth(+), replicate columns (Enterococcus fecalis; [3]): +
No Growth(−)/Full Growth(+), replicate columns (Enterococcus fecalis; [4]): +
No Growth(−)/Full Growth(+), replicate columns (Streptococcus viridans): +
No Growth(−)/Full Growth(+), replicate columns (Micrococcus luteus): +
No Growth(−)/Full Growth(+), replicate columns (Streptococcus agalactiae): − (2×) and +
No Growth(−)/Full Growth(+), replicate columns [1]: +
No Growth(−)/Full Growth(+), replicate columns (Staphylococcus aureus; [5]): +
No Growth(−)/Full Growth(+), replicate columns (Staphylococcus aureus; [6]): +
No Growth(−)/Full Growth(+), replicate columns (Streptococcus bovis): −
No Growth(−)/Full Growth(+), replicate columns (Streptococcus pyogenes): −
No Growth(−)/Full Growth(+), replicate columns (Bacillus subtilis; [7]): + (2×) and −
No Growth(−)/Full Growth(+), replicate columns (Bacillus subtilis; Bacillus subtilis strain EM27): − (2×) and +
